Results as given in patent publication US20030212100A1, “Quinoline derivatives and medicinal use thereof” (priority 2000, published 2003).

How the values were obtained:
[1] = target: T1, human PPARα receptor (Homo sapiens, UniProt Q07869); assay: Luciferase reporter assay of PPARα agonist activity (Gal4-PPARα chimera receptor in CV-1 cells); assay type: cell-based; settings: luciferase activity with 10 μM Wy-14,643 taken as 100, read-out: PPARα agonist activity, relative activity; for Emax at 1 µM: CV-1, 1 μM compound; for Emax at 10 µM: CV-1, 10 μM compound; for Emax at 0.1 µM: CV-1, 0.1 μM compound
T1 construct: expressed in transfected cells; host or cells: CV-1 cells (pSG5-based expression vector)
T1 sequence (Q07869 167-468): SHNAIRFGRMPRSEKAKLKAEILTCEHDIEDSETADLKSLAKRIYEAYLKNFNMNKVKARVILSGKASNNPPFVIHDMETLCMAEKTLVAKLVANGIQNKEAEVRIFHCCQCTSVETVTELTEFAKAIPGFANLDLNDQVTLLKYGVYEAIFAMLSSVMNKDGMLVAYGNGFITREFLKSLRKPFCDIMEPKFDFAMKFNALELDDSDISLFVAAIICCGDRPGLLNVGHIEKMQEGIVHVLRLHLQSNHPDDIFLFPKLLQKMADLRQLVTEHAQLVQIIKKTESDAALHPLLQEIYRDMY
Description: (§1) Measurement of PPARα Agonist Activity and PPARγ Agonist Activity
(§2) 1. Materials for Assay of Luciferase Using Human PPARα and PPARγ Receptors
(§3) The entire procedure was carried out according to the fundamental methods of genetic engineering and the ordinary method in the yeast one-hybrid or two-hybrid system was applied.
(§4) PGL2-UAS5-TK-luc was prepared as a reporter plasmid carrying a response sequence of Gal4 protein as a basic transcription factor of yeast, an enhancer sequence with five repeat part of UAS, a luciferase gene (luc) under the control of timidine kinase (TK) promoter. Specifically, a DNA fragment encoding a TK promoter (−105/+51) on the downstream side of an enhancer sequence comprising two time repeat of UAS was amplified by PCR using pRL-TK carrying a TK promoter (Promega, Trade name: Catalogue No. E2241) as the template and the primers: […]
(§5) After the fragment was cleaved with XhoI-Hind III, pGL2-UAS2-TK-luc was obtained by inserting the resultant fragment into the XhoI-Hind III site located on the upstream side of a luciferase structural gene on pGL2-Basic vector (Promega, Trade name: Catalogue No. E1641).
(§6) After cleavage of a synthetic DNA as an enhancer sequence comprising three time repeat of Gal4 response sequence (SEQ ID NO: 3): 5′-ATTGGTAC([…])×3 AGATCTCGAC) using KpnI and BgIII was carried out, pGL2-UAS5-TK-luc was prepared by inserting the resulting fragment into the KpnI-BgIIIb site of pGL2-UAS2-TK-luc.
(§7) A vector for expression of a chimera receptor protein, in which a ligand binding region of an internuclear receptor human PPARα or PPARγ receptor was fused with the carboxyl terminal of a DNA binding region of yeast Ga14 protein, was prepared as follows:
(§8) The structural gene of pSG5 (STRATAGENE, Trade Name: Catalogue No. 216201) as the basic expression vector was changed for the chimera receptor except that the promoter-enhancer region was maintained as it was.
(§9) The DNA encoding the ligand binding region of the human PPARα or PPARγ receptor was fused on the downstream side of the DNA encoding the DNA binding region and the amino acid sequence from 1 to 147 positions of Ga14 protein so that their reading frames were fitted and the resulting fused DNA was inserted into pSG5 (trade name) on the down stream side of the promoter-enhancer region. In this step, the DNA sequence was arranged so that a signal for transfer into the nucleus (Ala Pro Lys Lys Lys Arg Lys Val Gly (SEQ ID: No: 4) derived from SV-40T antigen was located on the amino terminal of the ligand binding region of PPARα or PPARγ receptor in order to localize the chimera receptor in the nucleus.
(§10) Based on comparison of the human PPAR receptors described in R. Mukherjee et al., [see J. Steroid Biochem. Molec. Biol., Vol. 51, p157 (1994)] and M. E. Green et al., [see Gene Expression, Vol. 4, p281 (1995))], as the structural gene part used for the ligand binding region PPARα or PPARγ, the human PPARα ligand binding region: Ser167-Tyr468; and the PPARγ ligand binding region: Ser176-Tyr478 were used, which had the same sequences corresponding to Ser204-Tyr506 for human PPARγ1 receptor and human PPARγ2, respectively.
(§11) In order to monitor influence against the basic transcription, an expression vector was prepared which carried a DNA encoding only the DNA binding region and the amino acid sequence from 1 to 147 position of Ga14 protein defective in its PPAR ligand binding region and a signal for transfer into the nucleus of SV-40T-antigen.
(§12) 2. Assay of Luciferase Using Human PPARα or PPARγ Receptor
(§13) CV-1 cells used as a host cell were cultivated according to an ordinary method. Specifically, a fetal bovine serum (Intergent, Catalogue No. 1020-90) was added to a Dulbecco's modified Eagle's medium (DMEM) so that the final concentration became 10%. Further, penicillin G (50 U/ml) and streptomycin sulfate (50 μg/ml) were added. Cultivation was conducted in the resulting medium in a 5% carbon dioxide gas at 37° C. […]

[2] = target: T2, human PPARγ receptor (Homo sapiens, UniProt P37231); assay: Luciferase reporter assay of PPARγ agonist activity (Gal4-PPARγ chimera receptor in CV-1 cells); assay type: cell-based; settings: luciferase activity with 1 μM Pioglitazone taken as 100, read-out: PPAR γ agonist activity, relative activity; for Emax at 0.1 µM: CV-1, 0.1 μM compound; for Emax at 1 µM: CV-1, 1 μM compound; for Emax at 10 µM: CV-1, 10 μM compound
T2 construct: corresponding to Ser204-Tyr506 for human PPARγ1 receptor and human PPARγ2; expressed in transfected cells; host or cells: CV-1 cells (pSG5-based expression vector)
T2 sequence (P37231 204-505 limits assumed): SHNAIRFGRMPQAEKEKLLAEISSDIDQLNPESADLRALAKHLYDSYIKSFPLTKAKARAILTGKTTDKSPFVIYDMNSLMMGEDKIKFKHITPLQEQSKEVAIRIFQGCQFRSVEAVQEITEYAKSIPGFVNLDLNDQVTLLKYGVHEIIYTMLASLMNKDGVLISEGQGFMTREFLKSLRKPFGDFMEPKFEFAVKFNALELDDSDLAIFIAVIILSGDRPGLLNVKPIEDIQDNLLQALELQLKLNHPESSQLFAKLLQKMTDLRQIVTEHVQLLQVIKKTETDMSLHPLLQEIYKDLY
Description: as §1, §2, §3, §4, §5, §6, §7, §8, §9, §10, §11, §12, §13

[3] = system: KK-Ay/Ta Jci type 2 diabetes mice; assay: In-vivo blood sugar and lipid reduction in diabetes model mice (KKAy mice); design: species or system mouse; settings: 30 mg/kg orally one time per day for 4 days, 5th day vs 1st day; for Reduction in free fatty acid (%) / Reduction in triglyceride (%): plasma
Description: Test for in-vivo Evaluation of the Activities for Blood Sugar Reduction and Lipid Reduction Using Diabetes Model Mice (KKAy Mice)
Type 2 diabetes mice “KK-Ay/Ta Jci” (male, Clea Japan, Inc., 10-week old) put in cages were used (each cage contained 5 mice). In the morning of the 1st day of test start, a blood was collected from the orbital vein of each mouse. The blood sugar value in the blood was measured by subjecting the blood to deproteinization using perchloric acid, subjecting the resulting material to centrifugation, and subjecting the resulting supernatant liquid to a new blood sugar test (Boehringer Mannheim). Further, the blood was subjected to centrifugation to obtain a plasma and the triglyceride concentration and free fatty acid concentration in the plasma were measured using Triglyceride E-Test Wako and NEFA-C Test Wako (Wako Pure Chemical Industries, Ltd.), respectively. Grouping was made so that the blood sugar values in individual groups became the same. Then, an Example 2 compound (exemplary compound No. 61) was suspended in a 0.5% aqueous CMC solution and administered orally one time per day for 4 days. In the 5th day of test, blood collection was made to measure blood sugar value, triglyceride concentration and free fatty acid concentration. Incidentally, a group to which only the 0.5% aqueous CMC solution was administered, was used as a control group; and Pioglitazone was used in a positive control group. The reduction in parameter in each group was calculated using the following formula.
Reduction (%)={1−(parameter of 5th day in each group)/(parameter of 1st day in each group)}×100

For CCOC(Cc1ccc(OCc2cnc3ccc(OC)cc3c2OC(C)C)cc1)C(=O)O (stereo not shown) [Example 2 (61), 2-ethoxy-3-{[4-(4-isopropoxy-6-methoxyquinoline-3-yl)methyloxy]phenyl}propanoic acid], the Emax at 1 µM [1] was 10.4%, the Emax at 10 µM [1] was 24.6% and the Emax at 0.1 µM [2] was 85%. The Emax at 1 µM [2] was 114%, the “Reduction in blood sugar (%)” value [3] was 50% and the “Reduction in free fatty acid (%)” value [3] was 46%. The “Reduction in triglyceride (%)” value [3] was 57%.
CCOC(Cc1ccc(OCc2cnc3cc(C(F)(F)F)ccc3c2OC(C)C)cc1)C(=O)O (stereo not shown) [Example 12 (85), 2-ethoxy-3-{[4-(4-isopropoxy-7-trifluoromethylquinoline-3-yl)methyloxy]phenyl}propanoic acid] showed an Emax at 0.1 µM [1] of 0.2%, an Emax at 1 µM [1] of 0.3% and an Emax at 10 µM [1] of 6.4%. The Emax at 0.1 µM [2] was 1.2%, the Emax at 1 µM [2] was 60.4% and the Emax at 10 µM [2] was 111%.
With CCOC(Cc1ccc(OCc2cnc3c(Cl)cccc3c2OC(C)C)cc1)C(=O)O (stereo not shown) [Example 13 (76), 3-{[4-(8-chloro-4-isopropoxyquinoline-3-yl)methyloxy]phenyl}-2-ethoxypropanoic acid] the Emax at 0.1 µM [1] was 0.3%, the Emax at 1 µM [1] was 0.9% and the Emax at 10 µM [1] was 41.1%. The Emax at 0.1 µM [2] was 104%, the Emax at 1 µM [2] was 140% and the Emax at 10 µM [2] was 130%.
With CCOC(Cc1ccc(OCc2cnc3c(C(F)(F)F)cccc3c2OC(C)C)cc1)C(=O)O (stereo not shown) [Example 14 (86), 2-ethoxy-3-{[4-(4-isopropoxy-8-trifluoromethylquinoline-3-yl)methyloxy]phenyl}propanoic acid] the Emax at 0.1 µM [1] was 0.3%, the Emax at 1 µM [1] was 0.3% and the Emax at 10 µM [1] was 2.1%. The Emax at 0.1 µM [2] was 19.6%, the Emax at 1 µM [2] was 76% and the Emax at 10 µM [2] was 132%.
CCOC(Cc1ccc(OCc2cnc3c(F)cccc3c2OC(C)C)cc1)C(=O)O (stereo not shown) [Example 15 (82), 2-ethoxy-3-{[4-(8-fluoro-4-isopropoxyquinoline-3-yl)methyloxy]phenyl}propanoic acid] showed an Emax at 0.1 µM [1] of 0.3%, an Emax at 1 µM [1] of 0.3% and an Emax at 10 µM [1] of 5%. It also gave an Emax at 0.1 µM [2] of 52.3%, an Emax at 1 µM [2] of 133% and an Emax at 10 µM [2] of 125%.
In the case of CCOC(Cc1ccc(OCc2cccc3cccnc23)cc1)C(=O)O (stereo not shown) [Example 16 (32), 2-ethoxy-3-{[4-(quinoline-8-yl)methyloxy]phenyl}propanoic acid], the Emax at 0.1 µM [1] is reported as 0.3%, the Emax at 1 µM [1] is reported as 0.4% and the Emax at 10 µM [1] is reported as 45.2%. For the same compound, the Emax at 0.1 µM [2] was 1.6%, the Emax at 1 µM [2] was 71.8% and the Emax at 10 µM [2] was 127%.
Compound COc1ccc2ncc(COc3ccc(/C=C(\Sc4ccccc4)C(=O)O)cc3)c(OC(C)C)c2c1 [Example 18 (112), 3-{[4-(4-isopropoxy-6-methoxyquinoline-3-yl)methyloxy]phenyl}-2-phenylthiopropenoic acid] has an Emax at 0.1 µM [1] of 0.3%, an Emax at 1 µM [1] of 0.3% and an Emax at 10 µM [1] of 0.3%. For the same compound, the Emax at 0.1 µM [2] was 0.5%, the Emax at 1 µM [2] was 22.2% and the Emax at 10 µM [2] was 89.9%.
COc1ccc2ncc(COc3ccc(CC(Sc4ccccc4)C(=O)O)cc3)c(OC(C)C)c2c1 (stereo not shown) [Example 19 (108), 3-{[4-(4-isopropoxy-6-methoxyquinoline-3-yl)methyloxy]phenyl}-2-phenylthiopropanoic acid] showed an Emax at 0.1 µM [1] of 0.3%, an Emax at 1 µM [1] of 0.3% and an Emax at 10 µM [1] of 0.6%. The Emax at 0.1 µM [2] was 25.2%, the Emax at 1 µM [2] was 83.5% and the Emax at 10 µM [2] was 97.9%.
With CCc1ccc(CCOc2ccc(CC3SC(=O)NC3=O)cc2)nc1 (stereo not shown) [Pioglitazone, reference compound] the “Reduction in blood sugar (%)” value [3] was 28%, the “Reduction in free fatty acid (%)” value [3] was 49% and the “Reduction in triglyceride (%)” value [3] was 60%.
